Assay results published in ChEMBL document CHEMBL3272354, “Antifilarial agents. 1,2-Cyclobutanediamines as analogues of diethylcarbamazine. Status of structure-activity relationships among diethylcarbamazine analogues” (1977).

system: Litomosoides carinii; experiment: Antifilarial activity against Litomosoides carinii infected in gerbil assessed as microfilaria count at 25, 50, 100 and 200 mg/kg administered on days 0, 1, 2 and 3 respectively measured on day 7 relative to control; format: functional

Point of comparison: `CCOC(=O)N[C@H]1CC[C@@H]1N(C)C.O=C(O)/C=C\C(=O)O` (relative stereo), Activity 158%. Against it:
- CCOC(=O)N[C@H]1CC[C@@H]1NC.Cl — lower, 122%
- CCOC(=O)N[C@H]1CC[C@H]1N(C)C.O=C(O)/C=C\C(=O)O (relative stereo) — higher, 169%
- CCOC(=O)N[C@H]1CC[C@@H]1N.Cl (relative stereo) — lower, 148%
- CCOC(=O)N[C@H]1CC[C@@H]1NC(=O)OCC (relative stereo) — higher, 201%
- CCOC(=O)N(C)[C@H]1CC[C@@H]1NC.O=C(O)/C=C\C(=O)O (relative stereo) — lower, 150%
- CCN(CC)C(=O)N[C@H]1CC[C@@H]1N(C)C.O=C(O)CC(O)(CC(=O)O)C(=O)O (relative stereo) — lower, 111%
- CCN(CC)C(=O)N(C)[C@H]1CC[C@@H]1N(C)C.O=C(O)/C=C\C(=O)O (relative stereo) — higher, 174%

system: Litomosoides carinii; experiment: Antifilarial activity against Litomosoides carinii infected in gerbil assessed as microfilaria count at 25, 50, 100 and 200 mg/kg administered on days 0, 1, 2 and 3 respectively measured on day 1 relative to control; format: functional

Point of comparison: `CCOC(=O)N(C)[C@H]1CC[C@@H]1NC.O=C(O)/C=C\C(=O)O` (relative stereo), Activity 150%. Against it:
- CCOC(=O)N[C@H]1CC[C@@H]1NC.Cl — lower, 101%
- CCOC(=O)N[C@H]1CC[C@H]1N(C)C.O=C(O)/C=C\C(=O)O (relative stereo) — lower, 127%
- CCOC(=O)N[C@H]1CC[C@@H]1N.Cl (relative stereo) — lower, 107%
- CCOC(=O)N[C@H]1CC[C@@H]1NC(=O)OCC (relative stereo) — higher, 189%
- CCOC(=O)N[C@H]1CC[C@@H]1N(C)C.O=C(O)/C=C\C(=O)O (relative stereo) — lower, 96%
- CCN(CC)C(=O)N[C@H]1CC[C@@H]1N(C)C.O=C(O)CC(O)(CC(=O)O)C(=O)O (relative stereo) — lower, 106%
- CCN(CC)C(=O)N(C)[C@H]1CC[C@@H]1N(C)C.O=C(O)/C=C\C(=O)O (relative stereo) — higher, 185%
- CCN(CC)C(=O)N1CCN(C)CC1 [DIETHYLCARBAMAZINE] — lower, 6%

system: Litomosoides carinii; experiment: Antifilarial activity against Litomosoides carinii infected in cotton rat assessed as reduction of microfilaria relative to control; format: functional; set-up: scale not given: the % may be the effect or the level left

With `CCN(CC)C(=O)N1CCN(C)CC1` [DIETHYLCARBAMAZINE] the Activity was 1%.

system: Litomosoides carinii; experiment: Antifilarial activity against Litomosoides carinii infected in gerbil assessed as microfilaria count at 25, 50, 100 and 200 mg/kg administered on days 0, 1, 2 and 3 respectively measured on day 14 relative to control; format: functional

Point of comparison: `CCOC(=O)N(C)[C@H]1CC[C@@H]1NC.O=C(O)/C=C\C(=O)O` (relative stereo), Activity 165%. Against it:
- CCOC(=O)N[C@H]1CC[C@@H]1NC.Cl — lower, 151%
- CCOC(=O)N[C@H]1CC[C@H]1N(C)C.O=C(O)/C=C\C(=O)O (relative stereo) — higher, 199%
- CCOC(=O)N[C@H]1CC[C@@H]1N.Cl (relative stereo) — lower, 153%
- CCOC(=O)N[C@H]1CC[C@@H]1NC(=O)OCC (relative stereo) — higher, 208%
- CCOC(=O)N[C@H]1CC[C@@H]1N(C)C.O=C(O)/C=C\C(=O)O (relative stereo) — higher, 213%
- CCN(CC)C(=O)N[C@H]1CC[C@@H]1N(C)C.O=C(O)CC(O)(CC(=O)O)C(=O)O (relative stereo) — lower, 161%
- CCN(CC)C(=O)N(C)[C@H]1CC[C@@H]1N(C)C.O=C(O)/C=C\C(=O)O (relative stereo) — lower, 100%

system: Litomosoides carinii; experiment: Antifilarial activity against Litomosoides carinii infected in gerbil assessed as microfilaria count at 25, 50, 100 and 200 mg/kg administered on days 0, 1, 2 and 3 respectively measured on day 3 relative to control; format: functional

Point of comparison: `CCOC(=O)N[C@H]1CC[C@@H]1N.Cl` (relative stereo), Activity 163%. Against it:
- CCOC(=O)N[C@H]1CC[C@@H]1NC.Cl — lower, 113%
- CCOC(=O)N[C@H]1CC[C@H]1N(C)C.O=C(O)/C=C\C(=O)O (relative stereo) — lower, 59%
- CCOC(=O)N[C@H]1CC[C@@H]1NC(=O)OCC (relative stereo) — higher, 236%
- CCOC(=O)N(C)[C@H]1CC[C@@H]1NC.O=C(O)/C=C\C(=O)O (relative stereo) — lower, 160%
- CCOC(=O)N[C@H]1CC[C@@H]1N(C)C.O=C(O)/C=C\C(=O)O (relative stereo) — higher, 190%
- CCN(CC)C(=O)N[C@H]1CC[C@@H]1N(C)C.O=C(O)CC(O)(CC(=O)O)C(=O)O (relative stereo) — lower, 113%
- CCN(CC)C(=O)N(C)[C@H]1CC[C@@H]1N(C)C.O=C(O)/C=C\C(=O)O (relative stereo) — lower, 99%
- CCN(CC)C(=O)N1CCN(C)CC1 [DIETHYLCARBAMAZINE] — lower, 0.1%

system: Litomosoides carinii; experiment: Antifilarial activity against Litomosoides carinii infected in gerbil assessed as microfilaria count at 25, 50, 100 and 200 mg/kg administered on days 0, 1, 2 and 3 respectively measured on day 10 relative to control; format: functional

`CCOC(=O)N[C@H]1CC[C@@H]1N.Cl` (relative stereo) gave an Activity of 182%.

system: Litomosoides carinii; experiment: Antifilarial activity against Litomosoides carinii infected in natal multimammate rat assessed as reduction of microfilaria relative to control; format: functional; set-up: scale not given: the % may be the effect or the level left

For `CN1CCN(C(=O)C2CCCCC2)CC1` [PEXANTEL], the Activity was 1%.

system: Litomosoides carinii; experiment: In vivo antifilarial activity against Litomosoides carinii; format: functional

`CCN(CC)C(=O)N1CCCN(C)CC1` gave an Activity of 1%.

system: Litomosoides carinii; experiment: Antifilarial activity against Litomosoides carinii infected in gerbil assessed as microfilaria count at 25, 50, 100 and 200 mg/kg administered on days 0, 1, 2 and 3 respectively measured on day 11 relative to control; format: functional

Work on `CCN(CC)C(=O)N1CCN(C)CC1` [DIETHYLCARBAMAZINE] yielded an Activity of 43%.

system: Litomosoides carinii; experiment: Antifilarial activity against Litomosoides carinii infected in gerbil assessed as microfilaria count at 25, 50, 100 and 200 mg/kg administered on days 0, 1, 2 and 3 respectively measured on day 9 relative to control; format: functional

Point of comparison: `CCOC(=O)N(C)[C@H]1CC[C@@H]1NC.O=C(O)/C=C\C(=O)O` (relative stereo), Activity 95%. Against it:
- CCOC(=O)N[C@H]1CC[C@@H]1NC.Cl — higher, 99%
- CCOC(=O)N[C@H]1CC[C@H]1N(C)C.O=C(O)/C=C\C(=O)O (relative stereo) — higher, 154%
- CCOC(=O)N[C@H]1CC[C@@H]1NC(=O)OCC (relative stereo) — higher, 240%
- CCOC(=O)N[C@H]1CC[C@@H]1N(C)C.O=C(O)/C=C\C(=O)O (relative stereo) — higher, 133%
- CCN(CC)C(=O)N[C@H]1CC[C@@H]1N(C)C.O=C(O)CC(O)(CC(=O)O)C(=O)O (relative stereo) — higher, 137%
- CCN(CC)C(=O)N(C)[C@H]1CC[C@@H]1N(C)C.O=C(O)/C=C\C(=O)O (relative stereo) — higher, 159%
- CCN(CC)C(=O)N1CCN(C)CC1 [DIETHYLCARBAMAZINE] — lower, 29%
